The source of these data is article PMC7815808, “Enzyme and lateral flow monoclonal antibody-based immunoassays to simultaneously determine spirotetramat and spirotetramat-enol in foodstuffs” (Scientific Reports, 2021).

The structures appear in SMILES notation. Values joined by “and” are separate entries in the source; they are usually repeats but may differ in a detail not shown here. Identical values can stand only once. Like-named read-outs stand apart in the source and are kept apart here. Bounds are passed on as bounds.

In one data set the target is mAbs to SP and SP-enol. Briefly: Direct cELISA, binding of analytes and other pesticides by the generated mAbs. More on the design: species or system mouse. Conditions: homologous tracer. The source says: Six mouse mAbs were obtained; three were from immunogen BSA‒SPm—named SPm#23, SPm#25, and SPm#216—and three from conjugate BSA‒SPo—named SPo#227, SPo#237, and SPo#243. These antibodies contained κ light chains and were of the IgG1 isotype, except mAb SPm#25 which was IgG2a. The affinity to SP and SP-enol was studied by checkerboard cELISA in the capture antibody-coated direct format, using homologous and heterologous enzyme tracers (with the same or different hapten, respectively, than the immunizing conjugate). SP and SP-enol standards were prepared in PBS (10 mM phosphate buffer, pH 7.4, with 140 mM NaCl) and tracer solutions for the competitive step were prepared in PBS-T (PBS containing 0.05% (v/v) Tween-20). […] Tracers with linker site heterologies were not bound by the antibodies. The only exception was mAb SPm#23 which did recognize the heterologous HRP‒SPh conjugate. For this antibody, the spacer arm of hapten SPh was located at a more proximal site than that of hapten […]. The lowest IC50 value with the homologous tracer was around 3 nM for SP-enol whereas binding to SP was moderate (IC50 values were higher than 30 nM).
(§1) Concerning specificity, the two assayed immunogens (BSA‒SPm and BSA‒SPo) afforded equivalent results. […] Cross-reactivity with the main SP metabolites was studied with antibody SPm#23.
(§2) Microplates were precoated with GAM in order to immobilise the mAb. The competitive step was carried out by mixing the analyte solution or diluted sample with the enzyme tracer solution. Standard curves were built in borosilicate glass tubes from 0.03 to 30 nM by a threefold serial dilution of the most concentrated standard solution, and a blank (no analyte) was also run. Concentrated stock solutions of the analytes in anhydrous DMF were used to prepare the most concentrated standard solution—the DMF concentration was always lower than 0.1% (v/v). The complete immunoassay procedure can be found in the Supplementary Information file.
(§3) Table S1. Specificity of the
(§4) 7. Direct competitive ELISA procedure
(§5) The same protocol previously described for this format was applied.7 Briefly, plates were coated with 100 µL per well of 1 µg/mL GAM solution in carbonate‒bicarbonate buffer, pH 9.6, by overnight incubation at 4 °C. Wells were washed four times with washing solution (150 mM NaCl with 0.05% (v/v) Tween-20) after each incubation step. Then, 100 µL per well of specific mAb solution in PBS-T was added and plates were incubated at room temperature during 1 h. The competitive reaction was carried out by adding 50 µL per well of analyte solution or diluted sample and 50 µL per well of tracer […]
(§6) enzyme substrate solution (2 mg/mL o-phenylendiamine and 0.012% (v/v) H2O2 in 25 mM sodium citrate and 62 mM sodium phosphate buffer, pH 5.4). Ten minutes later, the enzyme reaction was stopped by adding 100 µL per well of 1 M H2SO4.
8. Influence of pH and ionic strength […]
(§7) 7 E. Ceballos-Alcantarilla, D. López-Puertollano, C. Agulló, A. Abad-Fuentes, A. Abad-Somovilla, J. V. Mercader.
Combined heterologies for monoclonal antibody-based immunoanalysis of fluxapyroxad. Analyst 143, 5718‒

For data set [1], the system named is mAb SPm#23. As to the kind of experiment: Antibody specificity (cross-reactivity) of the selected mAb. Type of data set: binding, mouse. Conditions: cross-reactivity of the selected mAb, SP-enol = 100; n=3. The method, then: as §1, §2, §3, §4, §5, §6
8. Influence of pH and ionic strength
Figure S5. Influence of pH and ionic strength over the Amax and IC50 values of the spirotetramat-enol standard curve of the studied direct cELISA.
as §7
Combined heterologies for monoclonal antibody-based immunoanalysis of fluxapyroxad. Analyst 143, 5718‒ […]

Data set [2] concerns mAb SPm#23. Briefly: Optimized direct cELISA (mAb SPm#23 with tracer HRP–SPh), SP-enol standard curve. Type of data set: binding, mouse. The settings on record: for IC50 value for the sum of spirotetramat and spirotetramat-enol: direct cELISA, heterologous bioconjugate. The method, then:
(§8) In order to simultaneously quantify SP and SP-enol contents in a sample, an in situ procedure for treating the sample with alkaline solution in order to hydrolyse SP into SP-enol was assessed. SP and SP-enol standard solutions were prepared in MilliQ water and diluted fivefold with 40 mM NaOH. The mixtures were incubated 10 min at room temperature and diluted twofold with dilution buffer (200 mM Tris·HCl buffer, pH 8.0, containing 280 mM NaCl). For the competitive step, enzyme tracer solutions were prepared in TBS-T (100 mM Tris·HCl buffer, pH 8.0, containing 140 mM NaCl and 0.05% (v/v) Tween-20). As shown in the inset of Table 2, the obtained standard curves of SP-enol and hydrolysed SP were almost identical. This hydrolysis procedure was validated by HPLC‒MS/MS. SP and SP-enol aqueous solutions (50 µg/mL) were treated with NaOH and, 10 min later, the pH was lowered as previously described. Then, 10 µL of hydrolysed and diluted sample was transferred into 990 µL of acetonitrile and dried with anhydrous MgSO4. Controls without the hydrolysis step were also evaluated. Finally, the contents of SP, SP-enol, SP-keto, and SP-mono in the organic extracts were quantified (Table 2). […] Those samples were also analysed with the studied direct cELISA by running SP-enol standard solutions that had been incubated in NaOH and diluted with dilution buffer like the samples. […] Consequently, the developed hydrolysis procedure seemed to perform adequately for SP and SP-enol residue quantification as SP-enol equivalents.
The sigmoidal inhibition curve obtained for SP-enol and the final assay conditions of the developed direct cELISA are provided in Table 3. […] The Amax value of the standard curve was near 1.0, the slope was − 1.4, and the background signal was negligible.
as §2
The absorbance of each microplate well was immediately read at 492 nm using a reference wavelength at 650 nm, and values were processed with KCJunior software from BioTek Instruments. The SigmaPlot Version 14.0 was used to fit the experimental values to a standard four-parameter logistic curve. Immunoassay sensitivity was estimated as the concentration of analyte affording a 50% decrease (IC50) of the maximum absorbance (Amax) obtained in the absence of analyte. The LOD of the assay was defined as the IC10 of the sigmoidal inhibition curve. The LOQ was experimentally determined as the lowest analyte concentration that provided accurate and precise results using fortified food samples. […]
as §4
The same protocol previously described for this format was applied.7 Briefly, plates were coated with 100 µL per well of 1 µg/mL GAM solution in carbonate‒bicarbonate buffer, pH 9.6, by overnight incubation at 4 °C. Wells were washed four times with washing solution (150 mM NaCl with 0.05% (v/v) Tween-20) after each incubation step. […]

A short description of data set [3]: Spirotetramat hydrolysis study by HPLC‒MS/MS. Also on record: content found by HPLC–MS/MS, sample treatment A / content found by HPLC–MS/MS, sample treatment B / content found by HPLC–MS/MS, sample treatment C / content found by HPLC–MS/MS, sample treatment D: unit not given beside the values. Conditions: for fate on incubation in basic solution: 40 mM NaOH, 10 min, room temperature, HPLC‒MS/MS; for content found by HPLC–MS/MS, sample treatment A: SP hydrolysed (40 mM NaOH, 10 min, room temperature); for content found by HPLC–MS/MS, sample treatment C: SP-enol hydrolysed (40 mM NaOH, 10 min, room temperature). Type of data set: physicochemical. As for the experimental part:
as §8
SP, SP-enol, SP-keto, and SP-mono standard solutions were prepared by serial dilution in acetonitrile from 1 to 2500 μg/L in amber glass vials and kept at − 20 °C. The injection volume was 5 µL and the column temperature was 45 °C. The analysis was carried out using a C18 reverse phase column with a gradient of 0.2% (v/v) formic acid in water (A) and acetonitrile (B) as mobile phase at a flow rate of 0.3 mL/min. The elution profile was 0‒3 min, from 5% B to 95% B, 3.0‒3.5 min, 95% B, 3.5‒3.6 min, from 95% B to 5% B, and 3.6‒8 min, 5% B. Spectra were acquired in positive ionization multiple reaction monitoring mode with interchannel delay of 0.02 s.

A short description of data set [4]: Spirotetramat hydrolysis study by direct cELISA. Type of data set: physicochemical. As for the experimental part:
as §8

On the set-up of data set [5]: method as in PMID 23436572. Conditions: cited from earlier work.
Another data set deals with mammals. Also on record: method as in earlier work. Conditions: cited from earlier work.
Where [6] appears, read: SPm#23 100 μg/L, HRP–SPh 30 μg/L, Tris·HCl pH 8.0, after 40 mM NaOH step, n = 5.
Setting [7] is: incubated in NaOH solution (samples A and C).
Setting [8] is: non-hydrolysed control solution (samples B and D).

As to `CO[C@H]1CC[C@]2(CC1)NC(=O)C(c1cc(C)ccc1C)=C2O` [SP-enol, spirotetramat-enol], the IC50 (commonly the point on the concentration scale where inhibition reaches its midpoint) on mAbs to SP and SP-enol (read-out: lowest IC50 value with the homologous tracer) was roughly 3 nM; in the data set with mAb SPm#23 [2] (setting [6]) it was 0.34 nM and 0.344 nM. Further, in the data set on mAb SPm#23 [1], the “CR (%)” value stood at 100%. In addition, the “LOD (μg/L) (IC10)” value in the data set with mAb SPm#23 [2] (IC10 of the SP-enol inhibition curve, n = 5) was 0.02 µg/L and 0.022 ± 0.004 µg/L. Also, in the data set with mAb SPm#23 [2] (setting [6]), the “IC50 SP-enol” value is 0.1 ng/mL and 0.104 ± 0.007 ng/mL. Moreover, the “IC50 value for the sum of spirotetramat and spirotetramat-enol” value in the data set on mAb SPm#23 [2] was 0.1 ng/mL. The “fate on incubation in basic solution” value in data set [3] is given as “remained unmodified”. The “content found by HPLC–MS/MS, sample treatment A” value in data set [3] (A) came to 116.7. Further, in data set [3] (B, SP without hydrolysis), the “content found by HPLC–MS/MS, sample treatment B” value is recorded as 1.44. In data set [3] (C), the “content found by HPLC–MS/MS, sample treatment C” value came to 149.1. The “Recovery (%), sample treatment C” value in data set [3] (C, SP-enol hydrolysed, HPLC–MS/MS) came out at 119.6%. In data set [3] (D, SP-enol without hydrolysis), the “content found by HPLC–MS/MS, sample treatment D” value worked out at 142.8. In data set [3] (D, SP-enol without hydrolysis, HPLC–MS/MS), the “Recovery (%), sample treatment D” value was found to be 114.6%. Further, the “recovery measured as SP-enol by direct cELISA” value (shortened to “recovery measured as SP-enol”) in data set [4] (setting [7]) is recorded as 117.6%; in data set [4] (setting [8]), 118.0%.
In the case of `CCOC(=O)OC1=C(c2cc(C)ccc2C)C(=O)N[C@]12CC[C@@H](OC)CC2` [SP, ethyl cis-8-methoxy-2-oxo-3-(2,5-xylyl)-1-azaspiro[4.5]dec-3-en-4-yl carbonate], the half-inhibitory concentration (IC50) on mAbs to SP and SP-enol (all mAbs, read-out: IC50 values with the homologous tracer) is greater than 30 nM. In addition, the “CR (%)” value in the data set on mAb SPm#23 [1] is listed as 11.8%. Besides, the “IC50 value for the sum of spirotetramat and spirotetramat-enol” value in the data set with mAb SPm#23 [2] is 0.1 ng/mL. In addition, the “fate on incubation in basic solution” value in data set [3] is reported as “completely hydrolysed into SP-enol”. For the same compound, the “content found by HPLC–MS/MS, sample treatment A” value in data set [3] (A) is 0.03. In addition, the “Recovery (%), sample treatment A” value in data set [3] (A, SP hydrolysed, HPLC–MS/MS) was determined as 93.4%. Also, in data set [3] (B, SP without hydrolysis), the “content found by HPLC–MS/MS, sample treatment B” value was found to be 109.4. In data set [3] (B, SP without hydrolysis, HPLC–MS/MS), the “Recovery (%), sample treatment B” value came to 88.8%. Also, in data set [3] (C), the “content found by HPLC–MS/MS, sample treatment C” value was 0.02. In addition, the “content found by HPLC–MS/MS, sample treatment D” value in data set [3] (D, SP-enol without hydrolysis) turned out to be 0.00. In addition, the “recovery measured as SP-enol” value in data set [4] (setting [7]) is given as 85.0%. Further, the “recovery measured as SP-enol” value in data set [4] (setting [8]) is on record as “could not be quantified”. For the same compound, the “hydrolysis at basic pH values” in data set [5] is “quickly hydrolyses to form SP-enol”. Besides, in the data set with mammals, the eye irritation entry was “can be an eye irritant”, the skin-sensitization entry is given as “may cause skin-sensitization” and the toxicity in mammals result was “does not show severe toxicity”.
